Results reported in patent US20240239761A1, “BICYCLIC PHENOL COMPOUNDS AND USE THEREOF” (MEDSHINE DISCOVERY INC., priority 2021, published 2024).
Like-named read-outs stand apart in the source and are kept apart here.

Legend:
[1] = biological target: CYP3A4 (Homo sapiens (Human), UniProt P08684); assay: Inhibition of human liver microsomal cytochrome P450 isoenzyme CYP3A4; format: in vitro ADME; conditions: human liver microsomes
Procedure: (§1) To determine the inhibitory effect of the test compound WX001 on the activity of human liver microsomal cytochrome P450 isoenzymes (CYP1A2, CYP2C9, CYP2C19, CYP2D6, and CYP3A4). First, the test compound (10.0 mM) was diluted to prepare a working solution (100×the final concentration) with a concentration of 1.00 mM. Simultaneously, working solutions were respectively prepared for positive inhibitors of the P450 isoenzymes (CYP1A2, CYP2C9, CYP2C19, CYP2D6, CYP3A4 (with midazolam as a probe substrate), and CYP3A4 (with testosterone as a probe substrate)) and specific probe substrates thereof. Human liver microsomes, stored in a refrigerator at a temperature lower than −60° C., were thawed on ice, and once fully dissolved, were diluted with PB to prepare a working solution of a specific concentration (0.127 mg/mL). 20.0 μL of probe substrate was added to the reaction plate (20.0 μL of PB was added to the Blank wells), followed by the addition of 158 μL of human liver microsomal working solution to the reaction plate. The reaction plate was then placed on ice for later use. Then, 2.00 μL of the test compound (N=1) and specific inhibitors (N=2) were added to the corresponding wells. […] Lastly, the plate was sealed, shaken to ensure the content was thoroughly mixed, and analyzed by LC/MS/MS.

[2] = biological target: CYP2C19 (Homo sapiens (Human), UniProt P33261); assay: Inhibition of human liver microsomal cytochrome P450 isoenzyme CYP2C19; format: in vitro ADME; conditions: human liver microsomes
Procedure: as §1

[3] = Pharmacokinetic study of oral and intravenous administration in rats; format: in vivo, rat; conditions: male SD rats; for half-life: read-out: Half-life T1/2 (converted)
Procedure: Pharmacokinetic study of oral and intravenous administration of WX001 in rats
Male SD rats were selected, and given the test compound as detailed in Table 3.
Whole blood was collected for a certain period of time and prepared into plasma. The drug concentration was analyzed by the LC-MS/MS method, and the pharmacokinetic parameters were calculated using Phoenix WinNonlin software (Pharsight, USA).

[4] = biological target: THRβ (Homo sapiens, UniProt P10828); assay: GeneBLAzer TR beta-UAS-bla HEK 293T cell-based agonist assay; conditions: for THRß maximum agnostic capability: TR beta-UAS-bla HEK 293T cells, T3 as positive control
Excerpt: The present experiment employs the GeneBLAzer® TR alpha/beta-UAS-bla HEK 293T Cell-based Assay developed by ThermoFisher. The underlying principle is that TR alpha-UAS-bla HEK 293T Cell and TR beta-UAS-bla HEK 293T Cell express B-lactamase, a reporter gene controlled by the upstream UAS sequence. When a compound enters the cell and binds to THR, the receptor binds to the DNA binding region to form a complete GAL4 dimer that utilizes the GAL4-UAS system to activate β-lactamase expression, which then decomposes the substrate CCF4-AM (coumarin). The resulting product, when excited at 409 nm, emits fluorescence at a wavelength of 447 nm. If β-lactamase is not expressed, the product generates fluorescence at a wavelength of 520 nm through FRET under excitation at 409 nm. By detecting the ratio of the two fluorescences (447 nm/520 nm), the binding status of the compound to the protein can be determined, thus allowing the calculation of the EC50 of the compound.
The ECHO liquid handling workstation was used to transfer the compound to a 384-well plate, with 10 gradient concentrations for each compound, 3-fold dilution, and duplicate wells. 1.5×10^4 cells (TR beta-UAS-bla HEK 293T Cell) or 1.0×10^4 cells (TR alpha-UAS-bla HEK 293T Cell) were seeded onto the 384-well plate. HEK 293T-TR beta cells were incubated for 16 hours in a 37° C. incubator, and HEK 293T-TR alpha cells were incubated for 22 hours. The LiveBLAzer™M-FRET B/G (CCF4-AM) substrate was added to the cell plate and incubated for 2 hours at room temperature, shielded from light. The Flexstation 3 instrument was utilized to detect the fluorescence values with the wavelength of 460 nm/530 nm emitted by the product under the excitation at 409 nm. By detecting the ratio of the two fluorescences (460 nm/530 nm), the EC50 of the compound was calculated using Graphpad Prism software. […] The Z-factor (greater than 0.5) is calculated to monitor the stability of each experiment.

[5] = biological target: CYP1A2 (Homo sapiens (Human), UniProt P05177); format: in vitro ADME; conditions: microsomes
Procedure: as §1

[6] = biological target: CYP2D6 (Homo sapiens (Human), UniProt P10635); assay: Inhibition of human liver microsomal cytochrome P450 isoenzyme CYP2D6; format: in vitro ADME; conditions: human liver microsomes
Procedure: as §1

[7] = biological target: CYP2C9 (Homo sapiens (Human), UniProt P11712); assay: Inhibition of human liver microsomal cytochrome P450 isoenzyme CYP2C9; format: in vitro ADME; conditions: human liver microsomes
Procedure: as §1

[8] = biological target: THRα (Homo sapiens (Human), UniProt P10827); assay: GeneBLAzer TR alpha-UAS-bla HEK 293T cell-based agonist assay; conditions: TR alpha-UAS-bla HEK 293T cells; for EC50: 22 hours incubation; for THRα maximum agnostic capability: T3 as positive control
Procedure: When a compound enters the cell and binds to THR, the receptor binds to the DNA binding region to form a complete GAL4 dimer that utilizes the GAL4-UAS system to activate β-lactamase expression, which then decomposes the substrate CCF4-AM (coumarin).
The LiveBLAzer™M-FRET B/G (CCF4-AM) substrate was added to the cell plate and incubated for 2 hours at room temperature, shielded from light. […] By detecting the ratio of the two fluorescences (460 nm/530 nm), the EC50 of the compound was calculated using Graphpad Prism software. […] The Z-factor (greater than 0.5) is calculated to monitor the stability of each experiment.

[9] = rat, plasma, 30 mg/kg, oral, 30 mpk

Sequence of THRβ (P10828 whole entry, looked up, the tested form may be a part): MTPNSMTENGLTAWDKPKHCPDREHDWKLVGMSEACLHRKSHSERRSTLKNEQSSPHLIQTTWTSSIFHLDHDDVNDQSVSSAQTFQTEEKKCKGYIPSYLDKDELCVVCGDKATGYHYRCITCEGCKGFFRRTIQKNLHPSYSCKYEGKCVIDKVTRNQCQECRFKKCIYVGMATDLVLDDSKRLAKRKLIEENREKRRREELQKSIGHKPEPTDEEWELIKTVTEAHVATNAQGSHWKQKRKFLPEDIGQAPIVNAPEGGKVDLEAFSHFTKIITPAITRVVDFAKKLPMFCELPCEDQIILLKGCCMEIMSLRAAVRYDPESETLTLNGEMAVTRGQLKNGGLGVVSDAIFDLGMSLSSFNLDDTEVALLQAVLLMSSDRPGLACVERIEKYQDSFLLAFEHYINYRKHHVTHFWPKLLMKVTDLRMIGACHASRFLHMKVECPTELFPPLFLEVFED
Sequence of THRα (P10827 other isoform, or with tags, fused parts or gaps isoform P10827-2): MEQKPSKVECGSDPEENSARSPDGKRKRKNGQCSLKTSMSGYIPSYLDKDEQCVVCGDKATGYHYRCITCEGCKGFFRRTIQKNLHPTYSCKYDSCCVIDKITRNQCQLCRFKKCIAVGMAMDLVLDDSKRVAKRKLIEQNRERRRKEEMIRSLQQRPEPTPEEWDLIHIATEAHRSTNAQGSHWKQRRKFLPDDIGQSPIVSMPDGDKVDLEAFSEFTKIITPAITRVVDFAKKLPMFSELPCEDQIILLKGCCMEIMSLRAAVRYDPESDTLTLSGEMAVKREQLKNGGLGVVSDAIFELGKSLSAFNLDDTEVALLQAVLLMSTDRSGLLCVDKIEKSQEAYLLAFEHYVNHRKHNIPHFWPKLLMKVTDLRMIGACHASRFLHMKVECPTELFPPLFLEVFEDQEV
Sequence of CYP2D6 (P10635 whole entry): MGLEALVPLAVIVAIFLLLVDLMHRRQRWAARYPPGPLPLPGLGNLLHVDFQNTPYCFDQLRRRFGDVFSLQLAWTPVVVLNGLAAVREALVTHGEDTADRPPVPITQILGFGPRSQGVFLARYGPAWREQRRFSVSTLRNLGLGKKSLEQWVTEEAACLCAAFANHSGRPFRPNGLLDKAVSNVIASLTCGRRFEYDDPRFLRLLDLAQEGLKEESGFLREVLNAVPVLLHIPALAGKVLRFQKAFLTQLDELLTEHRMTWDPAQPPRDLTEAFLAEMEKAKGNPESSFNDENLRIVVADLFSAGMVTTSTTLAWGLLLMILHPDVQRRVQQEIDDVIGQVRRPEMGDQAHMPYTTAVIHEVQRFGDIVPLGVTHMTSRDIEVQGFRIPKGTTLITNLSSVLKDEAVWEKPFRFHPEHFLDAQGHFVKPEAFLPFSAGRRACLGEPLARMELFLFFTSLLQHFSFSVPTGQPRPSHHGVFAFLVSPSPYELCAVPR
Sequence of CYP2C9 (P11712 whole entry): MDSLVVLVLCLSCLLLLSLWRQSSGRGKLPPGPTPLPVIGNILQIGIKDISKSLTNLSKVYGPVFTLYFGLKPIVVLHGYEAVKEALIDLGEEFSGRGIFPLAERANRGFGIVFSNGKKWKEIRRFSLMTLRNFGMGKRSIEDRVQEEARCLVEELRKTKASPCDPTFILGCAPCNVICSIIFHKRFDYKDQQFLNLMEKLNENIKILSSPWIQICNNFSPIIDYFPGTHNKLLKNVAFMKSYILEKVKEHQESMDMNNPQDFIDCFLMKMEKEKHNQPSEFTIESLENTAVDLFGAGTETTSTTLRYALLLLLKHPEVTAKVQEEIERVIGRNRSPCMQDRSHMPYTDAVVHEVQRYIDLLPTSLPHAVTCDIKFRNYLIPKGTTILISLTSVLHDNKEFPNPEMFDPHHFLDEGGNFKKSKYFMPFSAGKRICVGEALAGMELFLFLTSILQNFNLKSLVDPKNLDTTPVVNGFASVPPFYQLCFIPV
Sequence of CYP3A4 (P08684 whole entry): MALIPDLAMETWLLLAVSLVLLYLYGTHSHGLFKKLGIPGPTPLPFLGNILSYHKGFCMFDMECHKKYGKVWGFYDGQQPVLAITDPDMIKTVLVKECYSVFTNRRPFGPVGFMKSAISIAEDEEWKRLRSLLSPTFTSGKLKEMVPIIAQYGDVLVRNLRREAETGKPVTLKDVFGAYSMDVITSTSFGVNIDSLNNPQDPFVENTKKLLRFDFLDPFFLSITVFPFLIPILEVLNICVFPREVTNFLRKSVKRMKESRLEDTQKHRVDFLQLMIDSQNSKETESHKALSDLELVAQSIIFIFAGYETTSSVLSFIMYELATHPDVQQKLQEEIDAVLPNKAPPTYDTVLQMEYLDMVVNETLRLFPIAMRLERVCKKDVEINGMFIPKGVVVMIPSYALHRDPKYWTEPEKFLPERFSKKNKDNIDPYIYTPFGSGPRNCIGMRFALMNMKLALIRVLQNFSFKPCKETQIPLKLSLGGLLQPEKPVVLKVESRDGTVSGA
Sequence of CYP2C19 (P33261 whole entry): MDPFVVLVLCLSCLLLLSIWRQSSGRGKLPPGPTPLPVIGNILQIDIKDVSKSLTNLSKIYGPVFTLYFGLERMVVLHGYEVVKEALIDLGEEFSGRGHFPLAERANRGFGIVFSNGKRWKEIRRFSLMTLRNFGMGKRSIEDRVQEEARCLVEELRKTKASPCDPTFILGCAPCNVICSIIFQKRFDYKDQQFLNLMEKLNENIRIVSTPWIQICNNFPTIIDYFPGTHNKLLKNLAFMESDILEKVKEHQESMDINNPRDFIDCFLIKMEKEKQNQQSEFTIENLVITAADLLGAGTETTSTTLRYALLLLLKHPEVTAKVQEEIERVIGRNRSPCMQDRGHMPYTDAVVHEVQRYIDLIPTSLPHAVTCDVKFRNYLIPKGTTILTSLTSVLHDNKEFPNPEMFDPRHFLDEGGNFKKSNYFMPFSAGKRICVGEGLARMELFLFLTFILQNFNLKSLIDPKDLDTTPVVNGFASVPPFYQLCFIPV
Sequence of CYP1A2 (P05177 whole entry): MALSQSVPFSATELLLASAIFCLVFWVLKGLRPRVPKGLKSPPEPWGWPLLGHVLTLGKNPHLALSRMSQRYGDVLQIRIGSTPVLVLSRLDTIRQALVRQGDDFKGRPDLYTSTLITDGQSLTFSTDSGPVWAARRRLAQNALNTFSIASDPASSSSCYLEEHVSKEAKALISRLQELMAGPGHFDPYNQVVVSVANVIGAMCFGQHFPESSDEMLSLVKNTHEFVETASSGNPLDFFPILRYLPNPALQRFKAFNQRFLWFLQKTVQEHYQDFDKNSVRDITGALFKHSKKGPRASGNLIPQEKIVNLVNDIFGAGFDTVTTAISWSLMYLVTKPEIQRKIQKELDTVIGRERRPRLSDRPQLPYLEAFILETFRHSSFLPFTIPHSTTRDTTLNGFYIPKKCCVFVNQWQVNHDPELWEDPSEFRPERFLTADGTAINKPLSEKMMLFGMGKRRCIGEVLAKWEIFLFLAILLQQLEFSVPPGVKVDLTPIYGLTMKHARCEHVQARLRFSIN

Row | Structure (SMILES) | inhibitory effect on CYP3A4 (in words) [1] | IC50 ([1]; midazolam as probe substrate) [nM] | IC50 [2] [nM] | inhibitory effect on CYP2C19 (in words) [2] | Area under the plasma concentration-time curve/Dosage DNAUC0-last ([3]; intravenous, 3 mpk) [nM. h/mpk] | Area under the plasma concentration-time curve/Dosage DNAUC0-last ([3]; oral, 30 mpk) [nM. h/mpk] | Vd ([3]; rat, plasma, 3 mg/kg, intravenous, 3 mpk, read-out: Apparent volume of distribution Vdss) [L/kg] | clearance ([3]; rat, plasma, 3 mg/kg, intravenous, 3 mpk, read-out: Clearance CL) [mL/min/kg] | half-life ([3]; rat, plasma, 3 mg/kg, intravenous, 3 mpk) [h] | bioavailability [3, 9] [%] | half-life [3, 9] [h] | EC50 [4] [nM] | THRß maximum agnostic capability [4] [%] | inhibitory effect on CYP1A2 (in words) [5] | IC50 [6] [nM] | inhibitory effect on CYP2D6 (in words) [6] | IC50 [7] [nM] | inhibition against CYP2C9 (in words) [7] | EC50 [8] [nM] | THRα maximum agnostic capability [8] [%]
1 | Cc1cc(NC(=O)c2noc(=O)[nH]2)cc(C)c1Cc1ccc(O)c2c1CCCC2 [WX001] | no inhibitory effects | 25400 | 5090 | no inhibitory effects | 5343 | 1939 | 0.411 | 7.93 | 1.66 | 36 | 1.6 | 39.4 | 103 | no inhibitory effects | 41600 | no inhibitory effects | 3270 | moderate inhibition | 122 | 24
2 | Cc1cc(NC(=O)c2noc(=O)[nH]2)cc(C)c1Cc1ccc(O)c(Cc2ccccc2)c1 [WX002] | – | – | – | – | – | – | – | – | – | – | – | 85.5 | 99 | – | – | – | – | – | 1000 | 101
3 | Cc1cc(NC(=O)c2noc(=O)[nH]2)cc(C)c1Cc1cc(I)c(O)c2c1CCCC2 [WX005] | – | – | – | – | – | – | – | – | – | – | – | 57.8 | 96 | – | – | – | – | – | 155 | 85
4 | Cc1cc(NC(=O)c2noc(=O)[nH]2)cc(C)c1Cc1cc(F)c(O)c2c1CCCC2 [WX006] | – | – | – | – | – | – | – | – | – | – | – | 105 | 90 | – | – | – | – | – | 435 | 86
